Common to all, as to format: functional
Assay [1] concerns the target T1, Sentrin-specific protease 6 (Homo sapiens, UniProt Q9GZR1).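 Further: Luminescence-based dose-response confirmatory assay of SENP6 inhibition, following up an ultra-high-throughput screen.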
T1 sequence (Q9GZR1 whole entry): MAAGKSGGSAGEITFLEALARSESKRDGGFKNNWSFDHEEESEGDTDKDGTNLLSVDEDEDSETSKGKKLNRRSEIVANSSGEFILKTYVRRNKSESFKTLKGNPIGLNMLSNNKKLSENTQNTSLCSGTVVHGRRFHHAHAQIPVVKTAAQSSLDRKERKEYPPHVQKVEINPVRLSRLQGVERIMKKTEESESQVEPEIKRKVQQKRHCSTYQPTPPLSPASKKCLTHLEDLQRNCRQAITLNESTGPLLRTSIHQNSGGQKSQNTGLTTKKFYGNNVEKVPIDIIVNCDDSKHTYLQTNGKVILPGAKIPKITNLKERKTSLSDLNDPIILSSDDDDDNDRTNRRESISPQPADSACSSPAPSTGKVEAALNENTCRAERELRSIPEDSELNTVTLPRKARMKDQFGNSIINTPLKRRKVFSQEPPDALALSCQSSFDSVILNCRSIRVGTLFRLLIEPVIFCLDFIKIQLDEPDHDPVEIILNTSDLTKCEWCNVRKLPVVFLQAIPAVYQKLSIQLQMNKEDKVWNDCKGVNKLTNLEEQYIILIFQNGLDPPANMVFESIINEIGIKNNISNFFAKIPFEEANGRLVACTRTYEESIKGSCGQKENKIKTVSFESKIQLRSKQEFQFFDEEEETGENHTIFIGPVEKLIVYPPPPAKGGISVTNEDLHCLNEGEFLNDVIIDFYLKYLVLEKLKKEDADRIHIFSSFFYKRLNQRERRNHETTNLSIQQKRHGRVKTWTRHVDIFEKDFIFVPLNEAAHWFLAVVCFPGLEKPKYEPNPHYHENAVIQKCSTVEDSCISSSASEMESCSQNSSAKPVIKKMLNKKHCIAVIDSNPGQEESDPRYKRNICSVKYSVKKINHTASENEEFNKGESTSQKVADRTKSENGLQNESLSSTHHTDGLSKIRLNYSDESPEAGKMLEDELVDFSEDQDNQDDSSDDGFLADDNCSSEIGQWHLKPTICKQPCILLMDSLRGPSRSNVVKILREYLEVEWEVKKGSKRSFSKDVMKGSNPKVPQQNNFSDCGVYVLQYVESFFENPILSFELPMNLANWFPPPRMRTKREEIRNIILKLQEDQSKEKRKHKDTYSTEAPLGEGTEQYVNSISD

In assay [2] the target is Glucose-6-phosphate 1-dehydrogenase (Homo sapiens, UniProt P11413). The experiment in a line: inhibition of Homo sapiens G6PD, dose series – biochemical, fluorescence, selectivity assay for P. falciparum G6PD inhibitor project, dose response (AID 504792).
A further assay deals with A-375. In words: MITF: Counter assay: A375 proliferation Measured in Cell-Based System Using Plate Reader - 2084-03_Inhibitor_Dose_DryPowder_Activity. [Related pubchem assays (depositor defined):AID488944]. To be noted: Homo sapiens.

The source made the active and inactive calls.

Chain of Glucose-6-phosphate 1-dehydrogenase (P11413 whole entry): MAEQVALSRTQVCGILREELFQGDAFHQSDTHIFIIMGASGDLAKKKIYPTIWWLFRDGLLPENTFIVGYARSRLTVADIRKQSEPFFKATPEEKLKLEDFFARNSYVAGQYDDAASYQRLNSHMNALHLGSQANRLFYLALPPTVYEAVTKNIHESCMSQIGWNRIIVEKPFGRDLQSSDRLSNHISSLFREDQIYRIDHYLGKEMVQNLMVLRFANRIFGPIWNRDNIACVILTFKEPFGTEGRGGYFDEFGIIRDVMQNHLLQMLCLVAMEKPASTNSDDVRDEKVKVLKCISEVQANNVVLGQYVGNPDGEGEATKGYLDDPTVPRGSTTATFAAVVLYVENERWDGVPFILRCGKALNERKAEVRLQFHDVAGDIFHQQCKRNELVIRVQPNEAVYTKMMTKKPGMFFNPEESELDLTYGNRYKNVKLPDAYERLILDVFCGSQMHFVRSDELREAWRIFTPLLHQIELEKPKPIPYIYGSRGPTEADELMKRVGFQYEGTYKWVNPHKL

The term IC50 denotes the concentration needed to halve the response being measured. With `CC(C)=CCC1=C(OCC(=O)O)C(=O)c2ccccc2C1=O`, in assay [1], the 50% inhibitory concentration (IC50) is 2.53 µM (active).
As usually defined, the AC50 is the midpoint of the concentration-response curve, whichever way the signal moves. With `Cc1cccc(NC2=C(NC(=O)c3ccccc3)C(=O)c3ccccc3C2=O)c1`, the IC50 in assay [2] is > 80 µM (inactive). For the same compound, the AC50 in the assay on A-375 was 34 µM (active).

These data come from ChEMBL document CHEMBL1201862, “PubChem BioAssay data set” (2004).
